Data taken from PMC5148695 (Neuropharmacology, 2016).

Target: α4β3δ GABAA receptor (Homo sapiens, UniProt P28472+P48169)
Test: whole-cell patch clamp, potentiation of GABA EC20 current
Assay type: cell-based

Sequence of α4β3δ GABAA receptor (P48169 36-554): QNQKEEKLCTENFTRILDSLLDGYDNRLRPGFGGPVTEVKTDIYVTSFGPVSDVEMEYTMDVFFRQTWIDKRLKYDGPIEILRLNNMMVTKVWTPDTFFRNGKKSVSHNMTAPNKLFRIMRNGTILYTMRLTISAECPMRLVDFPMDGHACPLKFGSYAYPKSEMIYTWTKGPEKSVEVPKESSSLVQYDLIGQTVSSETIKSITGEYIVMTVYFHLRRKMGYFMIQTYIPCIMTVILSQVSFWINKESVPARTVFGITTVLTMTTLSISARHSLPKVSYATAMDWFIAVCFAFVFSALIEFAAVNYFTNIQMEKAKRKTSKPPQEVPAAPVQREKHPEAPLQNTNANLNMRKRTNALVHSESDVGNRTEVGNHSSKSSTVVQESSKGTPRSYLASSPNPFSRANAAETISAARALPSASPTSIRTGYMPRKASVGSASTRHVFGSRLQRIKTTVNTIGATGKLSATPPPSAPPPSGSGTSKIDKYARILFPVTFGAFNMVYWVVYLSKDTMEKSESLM
Sequence of α4β3δ GABAA receptor (P28472 26-473): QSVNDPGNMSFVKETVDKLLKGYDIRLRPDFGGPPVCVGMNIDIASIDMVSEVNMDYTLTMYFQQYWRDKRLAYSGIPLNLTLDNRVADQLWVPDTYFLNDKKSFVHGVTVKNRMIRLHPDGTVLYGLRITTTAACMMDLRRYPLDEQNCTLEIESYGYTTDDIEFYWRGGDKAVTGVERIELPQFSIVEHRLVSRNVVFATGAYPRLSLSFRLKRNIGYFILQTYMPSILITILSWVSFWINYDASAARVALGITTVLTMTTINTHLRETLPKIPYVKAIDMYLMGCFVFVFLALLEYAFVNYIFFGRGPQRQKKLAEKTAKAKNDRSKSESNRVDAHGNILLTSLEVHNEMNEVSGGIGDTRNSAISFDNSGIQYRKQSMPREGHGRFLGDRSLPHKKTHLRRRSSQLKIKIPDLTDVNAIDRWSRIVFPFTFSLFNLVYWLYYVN
Sequence of α4β3δ GABAA receptor (O14764 25-452 partner): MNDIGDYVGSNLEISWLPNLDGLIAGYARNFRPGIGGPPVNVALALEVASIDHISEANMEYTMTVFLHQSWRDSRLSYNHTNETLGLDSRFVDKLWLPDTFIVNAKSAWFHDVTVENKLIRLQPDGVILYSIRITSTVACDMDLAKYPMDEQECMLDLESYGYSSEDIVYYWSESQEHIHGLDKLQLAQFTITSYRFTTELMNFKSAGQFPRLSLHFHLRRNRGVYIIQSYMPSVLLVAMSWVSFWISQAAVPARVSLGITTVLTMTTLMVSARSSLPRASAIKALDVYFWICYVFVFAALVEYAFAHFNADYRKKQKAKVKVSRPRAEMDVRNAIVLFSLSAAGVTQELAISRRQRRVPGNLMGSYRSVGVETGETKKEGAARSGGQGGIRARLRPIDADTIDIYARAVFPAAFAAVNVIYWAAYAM

## CC(=O)[C@H]1CC[C@H]2[C@@H]3CC[C@H]4C[C@H](O)CC[C@]4(C)[C@H]3CC[C@]12C [ALLO]
  EC50: 57 nM
